Source: patent US9897592B2, “Methods for identifying arthropod repellents and attractants, and compounds and compositions identified by such methods” (The Regents of the University of California, priority 2013, dated 2018)

Tests used:
cpA neuron [1] = experiment: Inhibition screen: odorant overlaid on 0.15% CO2 stimulus, cpA response; format: cell-based, Aedes aegypti; conditions: for % Inhibition: 1-s odorant stimulus (10^−2) in the middle of a 3-s 0.15% CO2 stimulus, vs solvent overlay
Description: Percent inhibition was calculated by comparing mean odorant overlay responses to mean solvent overlay responses, and error bars are s.d.
(§1) CpA-off and sham treated mosquitoes were pre-treated for 3 min in an upended 1 L glass dish in which 100 μl of fresh butyryl chloride (1%) or paraffin oil was allowed to vaporize for 10-20 min. The odor delivery system for different screens is shown in FIG. 7b; solvent responses during the same recording session were subtracted. Inhibition screen was tested. For the ultra-prolonged activator the 3-s stimulus was delivered from a 10 ml disposable pipette using a CS-55 stimulus controller (Syntech), CO2 was delivered, and responses to subsequent odor stimuli were calculated by subtracting baseline activity 1 s prior to each stimulus. When responses to repeated pulses of cyclopentanone and CO2 were compared, baseline activity between seconds 5 and 6 following each stimulus was subtracted. Spike counting was done manually or with Igor Pro6.2 (Wavemetrics) with the Neuromatic v2.00 macro (by Jason Rothman), and peak-to-peak spike amplitudes for FIG. 8 were analysed in Clampfit 10.3 (Molecular Devices).

cpA neuron [2] = experiment: Single-sensillum recording: activation of cpA neuron by odorants; format: cell-based, Aedes aegypti; conditions: A. aegypti cpA, 0.5-s pulses, odorants 10^−2 in paraffin oil or water, solvent response subtracted
Description: FIG. 3b depicts representative traces and mean responses of the A. aegypti cpA neuron to 0.5-s pulses of 138 predicted compounds screened using single-sensillum recordings, in which odorants were diluted to 10^−2 in paraffin oil or water, and responses to solvent have been subtracted, n=2-6, and error bars are s.d.
FIG. 5f is a bar graph illustrating the mean responses of the A. aegypti cpA neuron to 0.5-s pulses of 22 newly predicted compounds screened as in FIG. 3b, where salmon bars correspond to odorants found in human odor, odorants were diluted to 10^−2 in paraffin oil or water, and responses to solvent have been subtracted, and n=2-5.
Adult female A. aegypti (Linnaeus 1762) (Rockefeller strain) A. gambiae sensu stricto Giles 1902 (G3 strain), or C. quinquefasciatus Say 1823 were tested 3-12 days post-emergence with single-sensillum extracellular recordings. Chemicals were obtained from Sigma-Aldrich at the highest purity (typically >99%) and were dissolved in paraffin oil or water. […] Response to clean beads was subtracted from the results reported. Only sensilla with cpA activity of <20 spikes s^−1 to negative control were considered for analysis.
as §1
From the large list of cpA receptor ligands predicted from Example 3 above, 138 compounds were selected based on desirable criteria for application such as smell, presence in natural sources, human safety profile, and cost to procure. These compounds were tested individually using single-sensillum electrophysiology on the cp sensillum of female A. aegypti, according to the procedure described in Example 1 above.

C. quinquefasciatus = experiment: Semi-field two-choice greenhouse trapping; format: in vivo, Culex quinquefasciatus
From the text: FIG. 4g is a schematic of two-choice greenhouse experiments with two counterflow geometry traps, in which mosquitoes were trapped overnight in odorant-baited and solvent (water)-baited traps.
Semi-field trapping: Two modified greenhouses at the Agricultural Experiment Station at the University of California, Riverside, were used as described previously^2, with modifications. Fifty laboratory-reared, mated, non-blood fed female C. quinquefasciatus aged 8-14 days and starved for 24 hrs were released each evening around 5 pm and traps collected at ˜7 am. Counter flow geometry traps baited with CO2 (250 ml min^−1, ˜670 mmol/hr) odorant were used as described^2, with modifications. Odorant solutions in water were dispensed from 20 cm long gauze wicks protruding from uncapped 50 ml tubes beneath the trap outflow. For each trial, one baited trap and one control trap (water-filled) were placed in each of two greenhouses (FIG. 4g). For two-choice CO2 trials, water was placed under both traps. For two-choice ethyl pyruvate trials, both traps expelled CO2, and one trap also released ethyl pyruvate from an open 2.8×7 cm glass vial. Since ethyl pyruvate has very low volatility pure compound was used to generate ˜1.7 mmol/hr. An empty vial was placed under control traps. Treatment position and trap were alternated across trials. Volume of solution lost from tubes containing 5%, 10%, or 20% cyclopentanone were measured after each trial and the average loss of molecules calculated respectively for 3 concentrations as (±s.d.) of 0.7 (±0.1), 1.7 (±0.4), and 3.8 (±0.3) mmol/hr, respectively. Preference index=(# mosquitoes in odor-baited trap−# mosquitoes in control trap)/(total # mosquitoes caught in both traps).
The efficacy of cyclopentanone as a lure was tested using traps in controlled semi-field experiments with C. quinquefasciatus, a mosquito present in Southern California, where the experiments took place. 50 female mosquitoes were released overnight in a modified greenhouse that contained two counter-flow geometry mosquito traps (FIG. 4g). One trap was baited with an evaporative lure of cyclopentanone diluted in water, and the second trap was baited with water alone.

cpA neuron [3] = experiment: Ultra-prolonged activation: cpA firing after 3-s odorant exposure; format: cell-based, Aedes aegypti
From the text: FIG. 3d depicts representative traces from the A. aegypti cp sensillum to 1-s pulses of 0.15% CO2 prior to and following a 3-s exposure to either solvent (paraffin oil) or (E)-2-methylbut-2-enal (10^−1).
FIG. 3e is a graph illustrating the cpA baseline activity in the 1 s prior to each stimulus is elevated following exposure to odorant, where error bars are s.e.m.
FIG. 3f is a bar graph illustrating the mean responses of the cpA neuron to 1-s pulses of 0.15% CO2, calculated by subtracting the 1 s of the baseline activity prior to each stimulus, where n=5-6 individuals, analysed by t-test, ***p<0.001, and error bars are s.e.m.
as §1

CO2 receptor = conditions: cited from earlier work
A. aegypti [4] = experiment: Wind tunnel assay of attraction to human foot odor beads; format: in vivo, Aedes aegypti
Description: FIG. 2h is a schematic of wind tunnel assay, where human odor was provided by a dish of glass beads that had been worn in socks for ˜6 hrs (Person 1), and flight behaviour of individual female mosquitoes was recorded for 5 min or until they landed on the beads.
FIGS. 2i-k are bar graphs illustrating the proportion of butyryl chloride pre-exposed and sham treated mosquitoes presented with beads with no odor or foot odor that landed on beads (FIG. 2i), that took off from the release cage (FIG. 2j), and that did take off that succeeded in landing on the beads (FIG. 2k), where n=20-23 individuals per condition, analysed by one-tailed proportion Z-test, *p<0.05, **p<0.01, ***p<0.001, and error bars are s.e.m. All odorants except CO2 were dissolved in paraffin oil at 10^−2 except where indicated. […]

cpA neuron [5] = experiment: Butyryl chloride pre-exposure (cpA-off): cp sensillum responses to CO2, skin odorants, foot odor; format: cell-based, Aedes aegypti
From the text: FIG. 2b depicts representative cp responses to 0.5-s pulses of indicated odorants after a 3-min pre-exposure to butyryl chloride (10^−2) (cpA-off) or solvent (sham treatment).
FIG. 2c is a bar graph illustrating the mean odorant-evoked responses of the cpA neuron in cpA-off and sham treated mosquitoes, and FIG. 2d is a bar graph illustrating the combined odor-evoked responses of two neighbouring neurons, cpB and cpC, where for both of these figures, n=6 individuals, 1-4 sensilla surveyed per individual; analysed by nested ANOVA, and baseline refers to cpA activity in the presence of room air.
as §1

antennal neurons = experiment: Electroantennogram (EAG) after butyryl chloride treatment; format: cell-based, Aedes aegypti
Description: FIG. 2e is a graph illustrating averaged traces and FIG. 2f is a graph illustrating mean electroantennograph (EAG) responses to air puffed over glass beads laden with foot odor or a clean bead control, where EAG peaks are normalized to 3-methyl-1-butanol response, n=9, and analysed by t-test.
FIG. 9d illustrates EAG responses normalized to the reference odor 3-methyl-1-butanol. No significant differences due to treatment (n=9; t-test).
Standard whole-antenna recordings were performed with minor modifications. Traces were averaged using Clampfit software (Molecular Devices), and responses were normalized to interspersed pulses of a reference odorant, 3-methyl-1-butanol, according to the formula: Raw response (mV)/(ax+by), where a and b are the responses (mV) to the immediately previous and subsequent reference odor stimulation, respectively, and x and y are the proportion of time elapsed between stimuli (so that x+y=1).

A. aegypti [6] = experiment: Short-range attraction to heat and humidity; format: in vivo, Aedes aegypti; conditions: after pre-exposure; control for general deficits
Description: FIG. 9f illustrates mosquitoes' tendency to rest at the top surface of the cage increased in the presence of a warm, wet stimulus. […] No significant differences due to treatment (n=6 replicates; Mann-Whitney rank-sum test).
Ten 6-day-old female A. aegypti were starved 30 hrs in a 7 cm diameter×˜5 cm high cage with wire mesh on one side and placed inside an aquarium. After 5 min a beaker with 750 ml warm water (40° C.) and filter paper soaked with 400 μl water were placed 5 mm above the cage (FIG. 9e). CpA-off and sham treated mosquitoes were video-recorded and counted at 30 s intervals.

cpA neuron [7] = experiment: Ethyl pyruvate overlaid on foot odor stimulus, cpA response; format: cell-based, Aedes aegypti; conditions: presented together, 1-s 10^−2 on 2-s foot odor
From the text: FIG. 4b depicts representative trace and mean response when a 1-s stimulus of ethyl pyruvate (10^−2) is overlaid on a 2-s stimulus of foot odor (mixed beads from Person 1 and Person 2), where n=6.
The cpA inhibitor ethyl pyruvate was selected for testing since it is listed as a GRAS compound, is approved as a flavor agent in food, and has a pleasant smell (fruity, sweet, rum, caramel) (Table 3 above).

A. aegypti [8] = experiment: Hand-in-cage repellency assay; format: in vivo, Aedes aegypti; conditions: mesh treated 500 μl, 10% in acetone
From the text: FIG. 4c depicts representative images (left) of hand-in-cage assay mesh window and a graph (right) illustrating the mean number of mosquitoes on the netting at the indicated time points for ethyl pyruvate-treated or solvent-treated netting. n=8 each.
Forty 4-10-day-old female A. aegypti were starved 24 hrs and released in a 30×30 cm cage with a glass top, and trials commenced between 1400 and 1700 hrs. A human hand wearing a nitrile glove (Sol-vex) with a 7×6 cm window covered by two layers of fine polyester mesh (BioQuip, mesh size 26×22 holes per in^2) held in place by magnetic spacers, was inserted into the cage. The lower mesh was 1.5 mm above, and upper mesh was 6 mm above the hand. While skin emanations passed freely through the mesh window, the hand was protected from contact with mosquitoes and treated mesh. The outside mesh was treated with ethyl pyruvate (500 μl, 10% in acetone) or solvent. After letting solvent evaporate the glove was assembled. […] Trials were video recorded and mosquitoes on the mesh were counted every 15 s.
An arm-in-cage repellency assay was used in this Example using gloves with chemical treated mesh-covered windows to quantify attraction of A. aegypti mosquitoes to the human hand without exposing the hand to mosquito bites or skin to contact with test chemicals.

2-ethyl-5(6)-methylpyrazine
% Inhibition (cpA neuron [1]): −2.0% | Activation (spikes s^−1) (cpA neuron [2]): 14.0 spikes s^−1

c1cn[nH]c1 [1H-pyrazole]
% Inhibition (cpA neuron [1]): 4.9% | Activation (spikes s^−1) (cpA neuron [2]): 3.5 spikes s^−1

CC(O)C(=O)O (stereo not shown) [2-hydroxypropanoic acid]
catch vs control traps (C. quinquefasciatus; 10% lactic acid bait): did not catch significantly more mosquitoes | Activation (spikes s^−1) (cpA neuron [2]): −1.0 spikes s^−1

CC(C)C=O [2-methylpropanal]
% Inhibition (cpA neuron [1]): 5.8% | Activation (spikes s^−1) (cpA neuron [2]): 29.0 spikes s^−1

CC(C)CS [2-methylpropane-1-thiol]
% Inhibition (cpA neuron [1]): −2.9% | Activation (spikes s^−1) (cpA neuron [2]): 37.0 spikes s^−1

CC(=O)C=O [2-oxopropanal]
% Inhibition (cpA neuron [1]): −33.6% | Activation (spikes s^−1) (cpA neuron [2]): −2.0 spikes s^−1

C/C=C(\C)C=O [(E)-2-methylbut-2-enal]
duration of sustained firing of cpA (cpA neuron [3]; after 3-s exposure): at least 5.5 min | sustained firing of cpA (cpA neuron [3]; after 3-s exposure (10^−1)): ~45 spikes s^−1 | cpA responses to 1-s pulses of 0.15% CO2 relative to controls (cpA neuron [3]; during sustained firing period): significantly reduced | Activation (spikes s^−1) (cpA neuron [2]): 59.5 spikes s^−1

CCCC(=O)O [butanoic acid]
inhibition of the CO2 receptor (CO2 receptor): strongest known inhibitors

CCCC=O [butyraldehyde]
inhibition of the CO2 receptor (CO2 receptor): strongest known inhibitors

CCCC(=O)Cl [butyryl chloride]
proportion of mosquitoes that initiated upwind flight from release cage (A. aegypti [4]; after pre-exposure (cpA-off)): greatly reduced | proportion of mosquitoes that landed on human odor beads (A. aegypti [4]; after pre-exposure, 5-min assay): substantially reduced | cpA subsequent responses to 1% CO2 (cpA neuron [5]; 3-min exposure to 10^−2 volatiles, tested ~5-20 min after exposure): completely abolished | cpA responses to activating skin odorants (cpA neuron [5]; after 3-min pre-exposure): substantially reduced | time to recovery of cpA to control levels after treatment (cpA neuron [5]; after 3-min pre-exposure): 12 to 24 h | odor-evoked responses of cpB and cpC neurons (cpA neuron [5]; after treatment, selectivity for cpA): not reduced | cpA firing in response to subsequent CO2 stimuli (cpA neuron [5]; single puff of 1% butyryl chloride): inhibits cpA from firing | cpA response to foot odor collected on beads (cpA neuron [5]; tested ~5-20 min after exposure): completely lost | summed responses of antennal neurons to panel of skin odorants (EAG) (antennal neurons; after treatment): unaffected | summed response of antennal neurons to foot odor (EAG) (antennal neurons; with or without treatment): not statistically different | ability or preference for resting at top of cage, warm moist stimulus (A. aegypti [6]): did not impair

CCOC(=O)C(C)=O [ethyl 2-oxopropanoate]
response of cpA neuron to human foot odor (cpA neuron [7]): completely eliminates | catch of CO2-baited trap also dispensing odorant vs control CO2-baited trap (C. quinquefasciatus; pure compound, ~1.7 mmol/hr): significantly fewer mosquitoes | inhibition of cpA activity (cpA neuron [1]; overlaid on 0.15% CO2): strongly inhibited | Activation (spikes s^−1) (cpA neuron [2]): −63.0 spikes s^−1 | number of times mosquitoes landed on mesh over human hand (A. aegypti [8]): substantially reduced
